Assay results published in patent US20240293430A1, “WITHAFERIN A AND IMMUNE CHECKPOINT BLOCKER COMBINATION THERAPIES” (University of South Florida, priority 2023, published 2024).

What was measured:
[1] = tested on: PD-L1 expression in LLC, H1650, and A549 cell lines; assay: PD-L1 expression in NSCLC cell lines (flow cytometry, qRT-PCR, western blot); format: cell-based, mouse (LLC), human (H1650
Protocol: FIGS. 3A-3F depict that WFA upregulates PD-L1 surface expression in NSCLC cell lines. Cells were treated with WFA for 48 h. (FIGS. 3A, 3C, 3E) PD-L1 surface expression determined using flow cytometry LLC (FIG. 3A), H1650 (FIG. 3C), and A549 (FIG. 3E). (FIGS. 3B, 3D, 3F) PD-L1 expression was measured using qRT-PCR LLC (FIG. 3B), H1650 (FIG. 3D), A549 (FIG. 3F). PCR experiments were repeated twice and the mean±SEM of the technical replicates are represented. For the rest, the means of two independent experiments ±SEM are shown, and statistical significance was calculated using one-way ANOVA and a Fisher LSD post hoc test where * is p<0.05, ** is p<0.01, and **** is p <0.0001.
FIGS. 8A-8G depict that WFA induced ICD and PD-L1 upregulation in colorectal cancer cell lines. WFA increased the levels of ecto-CRT in the murine colorectal cancer cell line (FIG. 8A) MC-38 and human cell line (FIG. 8B) HCT-116. WFA increased the expression of PD-L1 in both (FIG. 8C) MC-38 and (FIG. 8D) HCT-116 cells. […] H1650 cells (at a higher density) were treated with a higher concentration of WFA (2 and 4 μM) to facilitate cell collection and protein isolation. The band density was quantified using Image J software and normalized to the housekeeping protein. The fold change from untreated control was averaged from two independent experiments ±SEM and one-way ANOVA was used to calculate the statistical significance. A Fisher LSD post hoc test was performed to compare the treatments to the control in (FIG. 8E) LLC, (FIG. 8F) H1650, (FIG. 8G) A549 cells. * p<0.05, ** p<0.01, *** p<0.001, **** p<0.0001. […]
Total cellular RNA was isolated from collected cell pellets using TRIzol reagent (Invitrogen, Waltham, MA, USA) and then quantified using the 2000 Nanodrop spectrophotometer (Thermo Fisher Scientific, Waltham, MA, USA). cDNA synthesis was performed using the Verso cDNA synthesis kit (Thermo Fisher Scientific, Waltham, MA, USA). qPCR was then performed using Forget-Me-Not EvaGreen qPCR Master Mix (Biotium, Fremont, CA, USA) in a Bio-Rad CFX384 thermocycler according to the manufacturer's instructions. […]

[2] = tested on: PD-L1 upregulation in MC-38, HCT-116, 4T-1, and MDA-MB-231 cell lines; assay: PD-L1 with WFA and NAC in colorectal and breast cancer cell lines; format: cell-based, mouse (MC-38, 4T1), human (HCT-116; conditions: breast cancer cell lines (4T1 1 μM, MDA-MB-231 2 μM WFA)
[3] = tested on: bone marrow-derived DCs co-cultured with WFA-pretreated LLC; conditions: DC:LLC 5:1, 24 h co-culture, vs untreated LLC
Protocol: Cells were treated with WFA for 48 h then collected using Accutase cell detachment solution. […] (FIG. 2E) Bone marrow-derived DC were co-cultured with WFA-pretreated LLC cells (24 h) in a ratio 5:1 of DC:LLC cells for 24 h. DC activation markers (CD80, CD86, and MHC-II) were examined by flow cytometry. The means of at least 2 independent experiments ±SEM is represented, and one-way ANOVA was used to calculate statistical significance where * denotes p<0.05, ** denote p<0.01, *** denote p<0.001, and **** denote p<0.0001.
Hierarchical gating was used to identify the total cell population followed by single live cells the CD11C+DC. Out of the CD11C population, the expression of DC cell activation markers was determined based on the fluorescence minus one (FMO) controls.
Myeloid progenitor cells were isolated from the femurs of C57BL/6 mice as described previously [37]. The isolated cells were cultured in RMPI media supplemented with GMCSF and refed as necessary. On day 8, the differentiated DCs (loosely attached) were collected, counted, and added to WFA-pretreated LLCs or untreated control LLCs at a ratio of 5:1 of DC: LLC cells. […] Then the samples were acquired using a BD LSR II flow cytometer and the data were analyzed using FlowJo 8.7 software (BD, Franklin Lakes, NJ, USA).

[4] = tested on: immunosuppressive MDSC population; conditions: mouse, in vivo; cited from earlier work

CC1=C(CO)C(=O)O[C@@H]([C@@H](C)[C@H]2CC[C@H]3[C@@H]4C[C@H]5O[C@]56[C@@H](O)C=CC(=O)[C@]6(C)[C@H]4CC[C@]23C)C1 [WFA, Withaferin A]
PD-L1 surface expression ([1]; flow cytometry, 48 h, LLC, H1650, A549): consistently increased | PD-L1 expression (mRNA) ([1]; qRT-PCR): induced | PD-L1 expression (protein) ([1]; western blotting): induced | PD-L1 expression [2]: increases | DC activation markers CD80, CD86, MHC-II [3]: higher levels | MDSC tumor infiltration and immunosuppressive function [4]: reducing
